Laboratory results published in BindingDB's records for PubMed 11303063 (Creighton University, 2001).
“And” between values parts separate entries of the source, which are not always exact repeats. Equal values may be shown once.

Biological target: Muscarinic acetylcholine receptor M3 (Rattus norvegicus, UniProt P08483)
Sequence (P08483 whole entry): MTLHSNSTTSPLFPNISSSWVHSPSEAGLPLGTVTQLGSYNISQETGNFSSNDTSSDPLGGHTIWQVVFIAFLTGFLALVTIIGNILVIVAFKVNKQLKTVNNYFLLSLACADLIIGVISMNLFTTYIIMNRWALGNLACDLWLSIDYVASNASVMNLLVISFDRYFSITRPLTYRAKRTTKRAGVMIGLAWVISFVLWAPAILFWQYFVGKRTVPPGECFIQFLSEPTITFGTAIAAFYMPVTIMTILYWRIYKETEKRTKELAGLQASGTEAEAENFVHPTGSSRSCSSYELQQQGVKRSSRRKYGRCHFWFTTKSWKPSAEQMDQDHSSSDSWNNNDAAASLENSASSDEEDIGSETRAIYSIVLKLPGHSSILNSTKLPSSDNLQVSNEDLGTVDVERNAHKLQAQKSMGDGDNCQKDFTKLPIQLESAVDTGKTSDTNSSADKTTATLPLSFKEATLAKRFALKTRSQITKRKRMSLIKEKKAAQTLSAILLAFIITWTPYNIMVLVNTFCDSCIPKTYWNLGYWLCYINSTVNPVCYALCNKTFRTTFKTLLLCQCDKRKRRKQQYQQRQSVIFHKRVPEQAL

SMILES | Ki
COc1ccccc1CNCCCCCCNCCCCCCCCNCCCCCCNCc1ccccc1OC [METHOCTRAMINE] | 1400 nM and 1700 nM
CN(CCCCCCCCN(C)CCCCCCN(CC(=O)N1c2ccccc2C(=O)Nc2cccnc21)CC(=O)N1c2ccccc2C(=O)Nc2cccnc21)CCCCCCNCC(=O)N1c2ccccc2C(=O)Nc2cccnc21 [NSC_132947] | 220 nM and 180 nM
